{
  "source": "patent US20250085284A1",
  "about": "“PRODUCTS AND USES THEREOF FOR PREDICTING THE SENSITIVITY OF A SUBJECT TO CANCER IMMUNOTHERAPY INVOLVING AN ANTI-PD(L)1 AND AN ANTI-ANGIOGENIC AGENT, AND FOR SELECTING OPTIMIZED THERAPY” (INSTITUT GUSTAVE ROUSSY, priority 2023, published 2025)",
  "key": {"[1]": {"test": "PEMBIB trial, mesothelioma expansion cohort: safety and tolerability (CTCAE Version 4.03)", "set-up": "species or system human", "settings": "in vivo"}, "[2]": {"test_system": "plasma cytokines, chemokines and soluble angiogenic factors", "test": "Plasma cytokine, chemokine and soluble factor titration on treatment (D-7, C1D1, C1D8)", "assay_type": "in vivo, human", "method": "Frozen plasma and frozen tumor biopsy supernatants were subsequently thawed, centrifuged for 15 min at 1,000 g, then titrated using Bio-Plex Pro™ Human Chemokine Panel (40-Plex, ref. 171AK99MR2, Bio-rad), Angiogenesis Panel 1 (human) (ref. K151P3S-1, Meso Scale Discovery), Human PD-1 and PD-L1 antibody sets (ref. F214A-3 & F214C-3, Meso Scale Discovery) following manufacturer's instructions. Each sample was run twice with the average value of the doublet taken as the result. Acquisitions were done on Bio-Plex 200™ System and MESO™ QuickPlex SQ120 readers. Raw data from Meso Scale Discovery's kit were analyzed with MSD's Discovery Workbench 4.0.\nInventors took advantage of the one-week lead-in nintedanib monotherapy prior to the pembrolizumab introduction to analyze the respective effects of the two drugs. Sequential blood sampling was performed at baseline and on-treatment in order to identify selective phannacodynamic markers of Nintedanib and Pembrolizumab that occurred upon treatment in all patients and independently from the treatment efficacy. Plasma was obtained from blood draws collected at baseline (D-7), one week after the nintedanib monotherapy lead-in (C1D1) and one week after the addition of pembrolizumab (C1D8). […] CCL15 and CXCL10 were also decreasing in all patients upon Nintedanib monotherapy but this decrease was only significant for patients with DCB (FIG. 10A)."}, "advanced mesothelioma": {"test_system": "advanced mesothelioma", "settings": "monotherapy; n=118; cited from earlier work"}, "[3]": {"settings": "D-7 vs C1D1, one-week nintedanib monotherapy, patients with both DCB and No DCB"}, "[4]": {"settings": "nintedanib monotherapy week, all patients, only significant for DCB"}, "[5]": {"settings": "one week after initiation of pembrolizumab, DCB and No DCB"}, "[6]": {"settings": "upon pembrolizumab addition (C1D1 to C1D8), only significant in No DCB"}},
  "data": [
    {"compound": "COC(=O)c1ccc2c(c1)NC(=O)/C2=C(\\Nc1ccc(N(C)C(=O)CN2CCN(C)CC2)cc1)c1ccccc1", "note": "[nintedanib]", "values": [
      {"measurement": "tolerability of nintedanib 150 mg BID versus 200 mg BID", "setting": "[1]", "result": "better tolerated"},
      {"measurement": "blood Angiopoietin-2 level", "setting": "[2]; [3]", "result": "significantly decreased"},
      {"measurement": "blood CCL21 level", "setting": "[2]; [3]", "result": "significantly decreased"},
      {"measurement": "blood CCL23 level", "setting": "[2]; [3]", "result": "significantly decreased"},
      {"measurement": "plasma CCL8 level", "setting": "[2]; first week of nintedanib, patients with DCB", "result": "tended to decrease"},
      {"measurement": "plasma CCL8 level", "setting": "[2]; first week of nintedanib, patients with No DCB", "result": "significantly increased"},
      {"measurement": "plasma CCL15 level", "setting": "[2]; [4]", "result": "decreasing"},
      {"measurement": "plasma CXCL10 level", "setting": "[2]; [4]", "result": "decreasing"}
    ]},
    {"compound": "pembrolizumab", "values": [
      {"measurement": "objective response rate (ORR; BORR per RECIST1.1)", "setting": "advanced mesothelioma", "result": 8, "unit": "%"},
      {"measurement": "circulating soluble PD-1 (sPD1) median level", "setting": "[2]; C1D8, one week after addition of pembrolizumab to nintedanib, both DCB and No DCB", "result": "above 10 ng/mL"},
      {"measurement": "plasma CCL19 level", "setting": "[2]; after one week of combination with pembrolizumab, all patients", "result": "increase"},
      {"measurement": "circulating soluble PD-L1 (sPDL1) level", "setting": "[2]; one week after addition of pembrolizumab, all patients", "result": "significantly increased"},
      {"measurement": "CXCL9 serum level", "setting": "[2]; [5]", "result": "significant rise"},
      {"measurement": "CXCL10 serum level", "setting": "[2]; [5]", "result": "significant rise"},
      {"measurement": "CXCL11 serum level", "setting": "[2]; [5]", "result": "significant rise"},
      {"measurement": "CXCL13 serum level", "setting": "[2]; [5]", "result": "significant rise"},
      {"measurement": "plasma CCL3 level", "setting": "[2]; [6]", "result": "increased"},
      {"measurement": "plasma CCL8 level", "setting": "[2]; [6]", "result": "increased"},
      {"measurement": "plasma CCL17 level", "setting": "[2]; [6]", "result": "increased"},
      {"measurement": "plasma CCL23 level", "setting": "[2]; [6]", "result": "increased"},
      {"measurement": "plasma CXCL2 level", "setting": "[2]; [6]", "result": "decreased"}
    ]}
  ]
}
